This note sets out measurements from patent US20220332699A1 (SAGE THERAPEUTICS, INC., priority 2019, published 2022).

Where only a bound is given, the exact number is not on record here.

Data set [1] can be described thus: Compound stability in cryopreserved human hepatocytes. It counts as in vitro ADME. The note with it: pooled cryopreserved human hepatocytes, read-out: Human Hep Clint. How it is done:
Pooled cryopreserved human hepatocytes from 10 donors were obtained from BioreclamationIVT (Cat No. X008001, Lot MMN). Test compounds (20 μL of 1 mM stock solution in DMSO) and control compounds 7-ethoxycoumarin and 7-hydroxycoumarin (20 μL of 3 mM stock solutions in DMSO) were diluted with 380 μL of 45% MeOH/H2O to obtain 50 μM solutions of test compound and 150 μM solutions of control compounds. Then 50 μL of these respective solutions were mixed with 450 μL of pre-warmed Williams' Medium E to obtain 5 μM test compound and 15 μM control compound solutions; and in duplicate 10 μL of these solutions were added to appropriate wells in a 96-well plate corresponding to incubation times T0, T15, T30, T60 and T90 and kept at 37° C. Cryopreserved human hepatocytes were thawed, isolated and suspended in Williams' Medium E, then diluted with pre-warmed William' Medium E to a concentration of 0.625×10^6 cells/mL. The reaction was started by aliquoting 40 μL of the hepatocytes into the 96-well plates containing 10 μL of the test and control compounds and incubated at 37° C. with 5% CO2. Stop solution (acetonitrile containing 200 ng/mL tolbutamide and labetalol as internal standards) was added at the requisite time (15, 30, 60, or 90 minutes). Hepatocytes were not added to the T0 samples, which were rather directly treated with stop solution. Medium control (MC) sample plates (T0-MC and T90-MC) were incubated in identical fashion as for the test samples, but without addition of hepatocytes and stop solution was added at the requisite times. The plates were vortexed immediately after addition of stop solution and placed on a plate shaker at 500 rpm for 10 min, then centrifuged at 3220×g for 20 min. The supernatants were transferred to 96-deep-well plates, sealed and stored at 4° C. until LC-MS-MS analysis. The concentration of compound remaining was determined by LC-MS-MS and plotted versus time. […]
Cutoff values determined by the hepatocyte stability assay are in Table 2 below: […]

A short description of a further data set: Mouse pharmacokinetics. It counts as in vivo. The note with it: 30 mg/kg PO. How it is done:
Compound A6 was evaluated in a mouse pharmacokinetics (PK) study. The compound was dosed at 30 mg/kg PO to 3 male CD-1 mice, formulated as a solution in 30% hydroxypropyl beta-cyclodextran, with a dosing volume of 5 ml/kg. Plasma samples were collected at 0.25, 0.50, 1.0, 2.0, 4.0, 8.0 and 24 h post-dose. In 2 separate groups with 3 mice/group, Compound A6 was dosed at 30 mg/kg, PO and plasma and brain samples were collected at 0.5 and 2.0 h post-dose. […] The brain to plasma ratio at 0.25 and 2.0 h was 0.39 and 0.41, respectively.

Another data set concerns the target CYP46A1 (Homo sapiens, UniProt Q9Y6A2). Nature of the data set: CYP46A1 Enzyme Assay 2 (testosterone substrate, HPLC-MS). It counts as biochemical. To be noted: read-out: IC50 (CYP46A1 inhibitory activity). The procedure, abridged:
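CYP46A1 (5 μM final) with testosterone ([…] final) preincubated with compound 30 min at 37° C, reaction started with NADPH-generating system and run 15 min at 37° C. Quenched in methanol containing diclofenac internal standard; product read by HPLC-MS.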

In the next data set the test system is P-gp (MDR1). Nature of the data set: Compound permeability and efflux across a MDCK-MDR1 cellular membrane. It counts as in vitro ADME, canine. To be noted: dog, pH 7.4, MDCK-MDR1 cell monolayer; for Papp A→B at 2.5 h, 2 µM: A to B; for efflux ratio at 2.5 h, 2 μM: read-out: MDCK Effux Ratio (B:A/A:B). How it is done:
MDR1-MDCKII cells (obtained from Piet Borst at the Netherlands Cancer Institute) were seeded onto […] (PET) in 96-well BD insert systems at 2.5×10^5 cells/mL and grown for 4-7 days until confluent cell monolayer formation.
Transport buffer for test compound was HBSS with 10 mM Hepes (pH 7.4±0.05) with or without 1% BSA and with or without GF120918. Transport buffer for reference compound was HBSS with 10 mM Hepes (pH 7.4±0.05) with or without GF120918. Test and reference compounds (digoxin, nadolol and metoprolol) were diluted with transport buffer from stock solution to a concentration of 2 μM (DMSO<1%) and applied to the apical or basolateral side of the cell monolayer. Permeation of the test compounds from A to B direction or B to A direction was determined in triplicate with and without P-gp inhibitor (GF120918, 10 μM). Digoxin was tested at 10 μM in the presence or absence of 10 μM GF120918 bi-directionally as well, while nadolol and metoprolol were tested at 2 μM in the absence of GF120918 in A to B direction in duplicate. The plate was incubated for 2.5 h in a CO2 incubator at 37±1° C., with 5% CO2 at saturated humidity without shaking. Test and reference compounds were quantified by LC/MS/MS analysis based on the peak area ratio of analyte/IS.
Six wells per 96-well plate were selected for the lucifer yellow rejection assay to determine the cell monolayer integrity. Thus, 75 μL of 100 μM lucifer yellow in transport buffer and 250 μL transport buffer were added to apical and basolateral chambers, respectively. The plate was incubated for 150 min at 37° C. with 5% CO2 and 95% relative humidity without shaking. After 150 minutes incubation, 20 μL of lucifer yellow samples were taken from the apical sides, followed by the addition of 60 μL of Transport Buffer, and then 80 μL of lucifer yellow samples were taken from the basolateral sides. The relative fluorescence unit (RFU) of lucifer yellow was measured at 425/528 nm (excitation/emission) with a Envision plate reader.
The apparent permeability coefficient Papp (cm/s) was calculated using the equation: […]
wherein dCr/dt is the cumulative concentration of compound in the receiver chamber as a function of time (μM/s); Vr is the solution volume in the receiver chamber (0.075 mL on the apical side, 0.25 mL on the basolateral side); A is the surface area for the transport, i.e. 0.0804 cm^2 for the area of the monolayer; C0 is the initial concentration in the donor chamber (μM).
The efflux ratio was calculated using the equation:
Efflux Ratio=Papp(BA)/Papp(AB)

CYP46A1, sequence (Q9Y6A2 whole entry): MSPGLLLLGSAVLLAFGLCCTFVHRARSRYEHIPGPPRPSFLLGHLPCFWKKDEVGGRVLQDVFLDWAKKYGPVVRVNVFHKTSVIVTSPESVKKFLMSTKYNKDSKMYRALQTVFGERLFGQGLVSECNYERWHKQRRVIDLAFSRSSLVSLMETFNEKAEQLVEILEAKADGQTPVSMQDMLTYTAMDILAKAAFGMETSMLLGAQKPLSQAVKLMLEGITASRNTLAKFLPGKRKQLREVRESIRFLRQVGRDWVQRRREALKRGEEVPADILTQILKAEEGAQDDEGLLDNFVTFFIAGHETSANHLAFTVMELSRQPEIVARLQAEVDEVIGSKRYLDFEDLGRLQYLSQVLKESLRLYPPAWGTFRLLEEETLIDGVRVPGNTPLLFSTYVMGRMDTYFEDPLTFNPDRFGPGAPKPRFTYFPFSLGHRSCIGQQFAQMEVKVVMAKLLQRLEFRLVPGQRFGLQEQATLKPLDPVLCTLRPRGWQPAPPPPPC

In the case of `N#CC1(Cc2ccc(F)cc2)CCN(C(=O)c2cccnc2-c2ccncn2)CC1` [Compound A6, 4-(4-fluorobenzyl)-1-(2-(pyrimidin-4-yl)nicotinoyl)piperidine-4-carbonitrile], the CLint scaled at 1 µM in data set [1] is below 18 mL/min/kg. The Kp at 0.25 h in “Mouse pharmacokinetics” (CD-1, mouse, brain and plasma, mice, at 0.25 h, read-out: brain to plasma ratio) came out at 0.39. Besides, in the data set “Mouse pharmacokinetics” (CD-1, mouse, brain and plasma, mice, at 2.0 h, read-out: brain to plasma ratio), the Kp at 2 h is 0.41. Also, in “Mouse pharmacokinetics” (mouse, male CD-1 mice, plasma), the area under the curve (AUC) stood at 14400 ng·h/mL, the Cmax was determined as 10700 ng/mL and the half-life was 57.6 min. For the same compound, the IC50 at CYP46A1 is below 100 nM. Besides, in the data set with P-gp (MDR1), the apparent permeability from apical to basolateral (Papp A→B) at 2.5 h, 2 µM was 22 ×10⁻⁶ cm/s and the efflux ratio at 2.5 h, 2 μM was 1.4.

For the compound `N#CC1(Cc2ccc(F)cc2)CCN(C(=O)c2cccnc2-c2ccncc2)CC1` [Compound A14, 1-([2,4′-bipyridine]-3-carbonyl)-4-(4-fluorobenzyl)piperidine-4-carbonitrile], in data set [1], the CLint scaled at 1 µM was below 18 mL/min/kg. Further, the concentration for half-maximal inhibition (IC50) on CYP46A1 is below 100 nM. In addition, in the data set with P-gp (MDR1), the Papp A→B at 2.5 h, 2 µM was 21 ×10⁻⁶ cm/s and the efflux ratio at 2.5 h, 2 μM is 1.2.

For `N#CC1(Cc2ccccc2)CCN(C(=O)c2cccnc2-c2ccncc2)CC1` [Compound A32, 1-([2,4′-bipyridine]-3-carbonyl)-4-benzylpiperidine-4-carbonitrile], the CLint scaled at 1 µM in data set [1] was below 18 mL/min/kg. For the same compound, the half-inhibitory concentration (IC50) on CYP46A1 is below 100 nM. Moreover, in the data set on P-gp (MDR1), the apical-to-basolateral permeability (Papp A→B) at 2.5 h, 2 µM amounted to 28 ×10⁻⁶ cm/s and the efflux ratio at 2.5 h, 2 μM was found to be 1.2.

By AUC is commonly meant the area under the concentration-time curve, a measure of exposure. A low value points to low exposure. Usually Cmax stands for the maximum level reached in the sampled fluid or tissue. For orientation: half-life means the time needed for the level to fall by half in the phase considered. A lower half-life goes with fast loss. The IC50 is the midpoint of a concentration-inhibition curve. The Papp A→B is how fast a substance crosses the layer from the apical side. The low end stands for poor permeation, the high end for ready permeation.
